In ChEMBL document CHEMBL3286306, “Himbacine-derived thrombin receptor antagonists: c7-spirocyclic analogues of vorapaxar” (ACS Med Chem Lett, 2014):

What was measured:
[1] = AUC (0 to 6 hrs) in rat at 10 mg/kg, po; assay type: ADME, organism-based; design: time < 6 hr, dose 10 mg/kg, route oral; details: plasma
[2] = target: T1, Proteinase-activated receptor 1 (Homo sapiens, UniProt P25116); assay: Displacement of [3H]haTRAP from PAR-1 receptor in human platelet membranes after 1 hr by scintillation counting analysis; assay type: cell membranes
T1 sequence (P25116 whole entry): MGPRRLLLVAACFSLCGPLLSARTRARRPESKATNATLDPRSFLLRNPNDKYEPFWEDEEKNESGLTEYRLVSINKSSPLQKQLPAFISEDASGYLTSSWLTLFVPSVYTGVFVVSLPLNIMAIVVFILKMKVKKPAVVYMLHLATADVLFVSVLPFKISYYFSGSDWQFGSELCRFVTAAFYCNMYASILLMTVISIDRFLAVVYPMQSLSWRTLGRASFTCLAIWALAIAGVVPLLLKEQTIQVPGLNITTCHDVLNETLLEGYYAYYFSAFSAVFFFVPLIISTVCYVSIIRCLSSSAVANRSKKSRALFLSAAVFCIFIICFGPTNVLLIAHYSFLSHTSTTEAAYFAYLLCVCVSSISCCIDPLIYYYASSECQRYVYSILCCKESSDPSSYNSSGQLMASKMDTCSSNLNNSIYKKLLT

SMILES | AUC(0-t) at 6 h [1] [ng·h/mL] | Ki [2] [nM]
C[C@H]1OC(=O)[C@@H]2C[C@@H]3C[C@@]4(CC[C@H]3[C@H](/C=C/c3ccc(-c5ccccn5)cn3)[C@H]12)COC(=O)N4 |  | 232
C[C@H]1OC(=O)[C@@H]2C[C@@H]3C[C@@]4(CC[C@H]3[C@H](/C=C/c3ccc(-c5cccc(C(F)(F)F)c5)cn3)[C@H]12)CNC(=O)O4 | 3200 | 31.5
C[C@H]1OC(=O)[C@@H]2C[C@@H]3C[C@]4(CC[C@H]3[C@H](/C=C/c3ccc(-c5cccc(C#N)c5)cn3)[C@H]12)COC(=O)N4 |  | 267
C[C@H]1OC(=O)[C@@H]2C[C@@H]3C[C@@]4(CC[C@H]3[C@H](/C=C/c3ccc(-c5cccc(F)c5)cn3)[C@H]12)COC(=O)N4 |  | 28
C[C@H]1OC(=O)[C@@H]2C[C@@H]3C[C@@]4(CC[C@H]3[C@H](/C=C/c3ccc(-c5ccccc5F)cn3)[C@H]12)COC(=O)N4 |  | 25
C[C@H]1OC(=O)[C@@H]2C[C@@H]3C[C@@]4(CC[C@H]3[C@H](/C=C/c3ccc(-c5cccc(C(F)(F)F)c5)cn3)[C@H]12)COC(=O)N4 |  | 26.5
C[C@H]1OC(=O)[C@@H]2C[C@@H]3C[C@]4(CC[C@H]3[C@H](/C=C/c3ccc(-c5cccc(C(F)(F)F)c5)cn3)[C@H]12)CNC(=O)O4 |  | 392
C[C@H]1OC(=O)[C@@H]2C[C@@H]3C[C@@]4(CC[C@H]3[C@H](/C=C/c3ccc(-c5cccc(C#N)c5)cn3)[C@H]12)COC(=O)N4 |  | 43

The next molecules have a lower Ki [2] than those just listed; values first:

AUC(0-t) at 6 h [1] [ng·h/mL] | Ki [2] [nM] | SMILES
4920 | 21 | C[C@H]1OC(=O)[C@@H]2C[C@@H]3C[C@]4(CC[C@H]3[C@H](/C=C/c3ccc(-c5cccc(C(F)(F)F)c5)cn3)[C@H]12)COC(=O)N4
3240 | 15.5 | C[C@H]1OC(=O)[C@@H]2C[C@@H]3C[C@]4(CC[C@H]3[C@H](/C=C/c3ccc(-c5cccc(F)c5)cn3)[C@H]12)COC(=O)N4
 | 8.9 | C[C@H]1OC(=O)[C@@H]2C[C@@H]3C[C@@]4(CC[C@H]3[C@H](/C=C/c3ccc(-c5ccccc5C#N)cn3)[C@H]12)COC(=O)N4
 | 5.1 | C[C@H]1OC(=O)[C@@H]2C[C@@H]3C[C@]4(CC[C@H]3[C@H](/C=C/c3ccc(-c5ccccc5C#N)cn3)[C@H]12)COC(=O)N4
